According to patent publication US20240398738A1, “MANIPULATION OF THE RETINOIC ACID SIGNALING PATHWAY” (THE REGENTS OF THE UNIVERSITY OF CALIFORNIA, priority 2017, published 2024):

How the values were obtained:
RGCs in WT retina = assay: MEA recording of photoswitch (QAQ, BENAQ) photosensitization in WT retina; format: in vivo, mouse; settings: WT retina, 3-7 days after intravitreal injection
Experimental: (§1) Intravitreal Injections. Before injection, mice were anesthetized with isoflurane (2%) and their pupils were dilated with tropicamide (1%) and phenylephrine (2.5%). Proparacaine (0.5%) was used as a topical analgesic. Genteal was applied under a glass coverslip to keep the cornea lubricated. An incision was made through the sclera below the ora serrata with a 30G needle and ˜1 μl of solution was injected into the vitreous with a blunt-ended 33G Hamilton syringe. After injection, the antibiotic tobramycin (0.3%) was applied to the eye. Final drug concentrations after intravitreal injection were: all-trans retinoic acid (ATRA, 100 nM), liarozole (100 μM), diethylaminobenzaldehyde (DEAB, 20 μM), citral (50 μM), BMS-493 (500 nM), and retinaldehyde (1 μM). The above values correspond to the final concentration in the eye after injecting 1 μl of drug accounting for a 5-fold dilution. An injection of PBS including 1% DMSO was used as vehicle control.
Multi Electrode Array Recordings. For extracellular recordings, a flat-mounted retina was placed ganglion cell layer down onto a 60-electrode Multi-Electrode Array (MEA 1060-2-BC, Multi-Channel Systems). After mounting the retina, photoswitches were applied for 30 min, followed by a 15 min wash. BENAQ was applied at a concentration of 100 μM and QAQ at 300 μM. A solution containing a mixture of neurotransmitter receptor blockers isolated RGCs from synaptic inputs: (in μM) 10 AP4, 40 DNQX, 30 AP5, 10 SR-95531, 50 TPMPA, 10 strychnine, and 50 tubocurarine. Extracellular spikes were high-pass filtered at 200 Hz and digitized at 20 kHz and were counted when exceeding 4 SD from the mean background voltage signal. Typically, each electrode recorded spikes from one to three individual RGCs. Principal component analysis of the spike waveforms was used for sorting spikes generated by individual cells (Offline Sorter, Plexon). Stimulation light was generated from a mercury arc lamp. Unfiltered broad spectrum light was used for BENAQ-treated retinas. Narrow band optical filters (Chroma) were used to deliver alternating intervals of 380 nm and 500 nm for stimulation of QAQ-treated as described previously (5,12). The Photoswitch Index (5) (PI) was established for individual retinas in light/darkness for treatment with BENAQ or in 380 nm/500 nm light for treatment with QAQ (11,12).
(§2) Injections. Intravitreal injections: Adult mice and rats were intravitreally injected with drugs or viruses. Before injection, animals were anesthetized with isoflurane (2%) and their pupils were dilated with tropicamide (1%) and phenylephrine (2.5%). Proparacaine (0.5%) was used as a topical analgesic. Genteal was applied under a glass coverslip to keep the cornea lubricated. An incision was made through the sclera below the ora serrata with a 30G needle. Solutions were injected into the vitreous with a blunt-ended 33G Hamilton syringe. After injection, the antibiotic tobramycin (0.3%) was applied to the eye. Final drug concentrations (after 5-fold dilution in the vitreous) were: 100 nM all-trans retinoic acid (ATRA), 100 μM liarozole (24), 20 μM diethylaminobenzaldehyde (DEAB) (28,93), 50 μM citral, 500 nM BMS 493 (85), 1 μM retinaldehyde, and vehicle comprising of 1× phosphate buffered saline (PBS) containing 1% dimethyl sulfoxide (DMSO). Intravitreal injections were performed using AAV2 serotype only. WT and rd1 mice were injected with the RAR-reporter virus or the RARDN virus, at age 1-1.5 month-old. WT and s334ter rats were injected with the RAR-reporter virus at age 3-4 month-old. Final volume of injections was 1-1.5 μL for mice and 5 μL for rats.
Multi Electrode Array Recordings. Flat-mounted retina was placed ganglion cell layer down onto a 60-electrode Multi-Electrode Array (MEA 1060-2-BC, Multi-Channel Systems). After mounting the retina was left to dark adapt for 20 minutes under constant perfusion with oxygenated saline at 34° C. 300 μM QAQ at was applied for 30 min, followed by a 5 min wash. […]

RGCs in rd1 retina = assay: YO-PRO-1 loading assay (dye permeability of RGCs) in rd1 retina after intravitreal injection; format: in vivo, mouse
Experimental: as §1
Yo-PRO-1 Loading Assay. After dissection, retinas were cut into thirds and mounted on a windowed nitrocellulose filter paper. Retinas were treated with 200 nM Yo-PRO-1 (Life Technologies) in oxygenated ACSF for 15 minutes, followed by treatment and then treated with nuclear ID (Enzo Life Sciences) at a 1:500 dilution for 3 minutes. ACSF was perfused continuously at 3 ml/min for a period of 5 minutes to wash away excess dye. In experiments employing TNP-ATP (200 μm), the retinas was pretreated with the compound for ten minutes before beginning YO-PRO-1 treatment.
Image analysis. All image analysis was performed using ImageJ or Fiji software (55,56). Yo-PRO-1 loading assay, ROIs were manually selected using the nuclear-ID channel based upon morphological characteristics. This was performed after computationally flattening the retina by performing a maximum Z projection onto a single plane. Following this, a background subtraction was performed with a rolling radius of 50 pixels. Cells identified as vascular endothelial cells or pericytes were not included in the analysis. This was confirmed using transillumination. A threshold for YO-PRO-1 loading was established by measuring the level of autofluorescence of untreated retinas in each channel and finding a baseline value with +2SD being the threshold for a YO-PRO-1 positive cell. Nuclear-ID was used to count the total number of cells within a field of view. The percentage of cells above the threshold was then calculated for comparison. For analysis of RARE double reporter virus assay, ROIs were manually selected on the RFP channel first and then superimposed to the GFP channel. Single cell values for both RFP and GFP were filtered by using a RFP minimum threshold established in naive unlabeled retinas.
as §2, with “rats. […]” for “rats.”

Structure (SMILES)	QAQ photosensitization of WT retina, in words (RGCs in WT retina)	Photoswitch Index (PI) with QAQ (RGCs in WT retina; QAQ 300 μM, mean±SEM)	Yo-Pro-1 labeling of rd1-RGCs, result in words (RGCs in rd1 retina; rd1, intravitreal injection, compared to vehicle-injected)	percentage of YO-PRO-1 positive cells (fraction of RGC nuclei labeled) (RGCs in rd1 retina; rd1 mice, intravitreal injection, measured 3-7 days after, BMS-493 500 nM, DEAB 20 uM, citral 50 uM, mean±SEM)
CC1=C(/C=C/C(C)=C/C=C/C(C)=C/C(=O)O)C(C)(C)CCC1 [ATRA, all-trans retinoic acid]	Neither ATRA nor liarozole alone enabled significant QAQ photosensitization	0.1±0.05		
CC1(C)CC=C(C#Cc2ccccc2)c2cc(/C=C/c3ccc(C(=O)O)cc3)ccc21 [BMS-493]			reduced Yo-Pro-1 labeling in rd1 to WT levels	6.13±1.43%
